What was measured:
U87-MG-luc GBM cell line [1] = experiment: U87-MG-luc tumors implanted intracranially in mice, combination with temozolomide; type: in vivo; conditions: 28 day cycle
Experimental: Male athymic nude mice were injected into the cerebellum with 1×10^5 U87-MG-luc cells in Matrigel. Animals were imaged to monitor tumor establishment and growth throughout the study using an In Vivo Imaging System (IVIS) once weekly, detecting tumor bioluminescence (BLI) in photons. Once tumor establishment was confirmed, animals were randomly allocated into 8 treatment groups: vehicle (0.5% methycellulose, 1% Tween 80 P.O. and saline IV.), Compound of formula (I) [CoF (I)](formulated as a suspension in 0.5% methycellulose and 1% Tween 80) administered orally at 3 mg/kg, at 10 mg/kg or at 30 mg/kg once daily (QD) in monotherapy, temolozomide [TMZ] administered orally at 3 mg/kg once daily (QD) in monotherapy, over a 28 day cycle, and combination of TMZ+compound of formula (I) at each dose) (n=6 animals per group for monotherapy groups and n=8 animals per group for combination groups). In combination arms, Compound of formula (I) and was administered 2 hours prior to TMZ. During routine monitoring, the animals were checked for any effects of tumor growth and treatments on behavior such as mobility, food and water consumption, body weight gain/loss 3 times a week, eye/hair matting and any other abnormalities. Mortality and observed clinical signs were recorded for individual animals in detail.

SNB-19 GBM cell line = experiment: Colony formation with radiotherapy, SNB-19; type: cell-based; conditions: SNB19; 0.1 μM to 5.0 μM; irradiated at 1, 2 and 4 Gy; p<0.0001
Experimental: (§1) GBM tumor cells (T98G, LN18, SNB-19 and U251) were grown as an adherent monolayer at 37° C. in a humidified atmosphere (5% CO2, 95% air). For experimental use, tumor cells were detached from culture flasks by a 5-minute treatment with trypsin-versene, in Hanks' medium without calcium or magnesium and neutralized by addition of complete culture medium. Cells were counted and viability assessed using a 0.25% trypan blue exclusion assay. All cell lines were appropriately seeded following the conditions for monolayer colony formation in 6-well plates (Ref #152795, Nunc, Dutscher) in 1.9 ml of cell culture medium, at 3 densities for evaluation of a proclonogenic effect. […]
(§2) Treatments were performed at 24 hours (D1) after seeding by addition of ×20 concentrated compound or vehicle solutions, to obtain final concentrations of 0.1 μM to 5.0 μM of Compound of formula (I) [referred to as CoF (I) in FIG. 3]. […] After 14 days of incubation, colonies were counted after being stained through incubation with 500 μl of a solution of water containing 0.05% (w/v) of methylene blue (Ref. M4159, Sigma) for 2 hours. Colonies were counted using a colony counter pen (Ref #045855, Dutscher, Brumath, France). The Surviving Fraction was calculated for each condition using the equations described below and plotted on a semi-logarithmic graph using the Linear-Quadratic model. […]

[2] = Free fraction in rat plasma (separate experiment, not shown); type: in vitro ADME
U87-MG-luc GBM cell line [3] = experiment: U87-MG-luc tumors implanted cerebrally in mice, monotherapy; type: in vivo, athymic nude mice; conditions: 30 mg/kg oral QD, 28 days, p=0.0023 on day 28
Experimental: Male athymic nude mice were injected A) subcutaneously (s.c.) or B) cerebrally (i.e.) with 1×10^5 U87-MG-luc cells in Matrigel. Animals implanted i.e. were imaged to monitor tumor establishment and growth throughout the study using an In Vivo Imaging System (IVIS) once weekly, detecting tumor bioluminescence (BLI) in photons. For animals implanted s.c., tumor growth was monitored twice weekly by caliper measurement and tumor volume calculated using the equation V=(L×W×W)/2, where V is tumor volume, L is tumor length (the longest tumor dimension) and W is tumor width (the longest tumor dimension perpendicular to L). Upon confirmation of tumor establishment, animals were randomly allocated into 3 (A, s.c.) or 2 (B, i.e.) treatment groups (n=8 animals per group) consisting of vehicle (0.5% methycellulose, 1% Tween 80 P.O. and saline I.V.) or Compound of formula (I) [CoF (I)] formulated as a suspension in 0.5% methycellulose and 1% Tween 80. The treatments were administered over a 28 day cycle and compound of formula (I) was administered orally at a dose of either 30 mg/kg (for both A and B) or 60 mg/kg (for A only), once daily (QD)). […] Mortality and observed clinical signs were recorded for individual animals in detail.

in vivo = experiment: in vivo; set-up: species or system cynomolgus monkeys; conditions: female, cynomolgus monkey, po
Experimental: Compound of formula (I) was orally given to 3 female cynomolgus monkeys by gavage once a day for 91 days. The volume of administration was 5 mL/kg, and the vehicle was an aqueous solution of 0.5% (w/v) methylcellulose (cps 400) and 1% (w/v) Tween 80. The Compound of formula (I) dose was 10 mg/kg; this dose level was assessed in this study to be the […] no adverse effect level (NOAEL) based on general toxicology evaluation. The animals were necropsied 24 hours after the last dose after an overnight period without food. A sample from brain tissue (left forebrain) was collected from each animal, snap frozen in liquid nitrogen. and stored frozen at <−50° C. Blood samples were taken from the femoral vein into tubes containing K2EDTA, fully inverted approximately 10 times, and placed on crushed wet ice until centrifugation at 2300 g for 10 minutes at approximately 4° C. The resultant plasma was separated, transferred into polypropylene tubes, and frozen at <−50° C. Tissue and plasma samples were transported frozen on dry ice to the respective sites of analysis.

T98G GBM cell line = experiment: Colony formation with radiotherapy, T98G; type: cell-based; conditions: 0.1 μM to 5.0 μM, irradiated at 1, 2 and 4 Gy, p<0.0001
Experimental: as §1, §2

SMILES: Cc1cc(Nc2ncc3c(n2)N(C)CN(c2c(Cl)cccc2Cl)C3=O)ccc1C1CCN(C)CC1 [Compound of formula (I)]
- Anti-tumor activity (mean relative BLI) vs vehicle (U87-MG-luc GBM cell line [1]; monotherapy 3 mg/kg oral QD): did not result in any significant anti-tumor activity
- Anti-tumor activity (mean relative BLI) vs vehicle (U87-MG-luc GBM cell line [1]; monotherapy 10 mg/kg oral QD): did not result in any significant anti-tumor activity
- Anti-tumor activity (mean relative BLI) vs vehicle (U87-MG-luc GBM cell line [1]; monotherapy 30 mg/kg oral QD, p=0.0133 on day 36): significantly smaller tumors than vehicle controls
- Effect on radiotherapy (surviving fraction, colony formation) (SNB-19 GBM cell line): significantly increased effect of radiotherapy
- fraction unbound [2]: 0.078
- Tumor size (relative BLI) vs vehicle controls at end of treatment (U87-MG-luc GBM cell line [3]): significantly smaller tumors than vehicle controls
- NOAEL at 91 days (in vivo): 10 mg/kg
- Effect on radiotherapy (surviving fraction, colony formation) (T98G GBM cell line): significantly increased effect of radiotherapy

Source: patent US20260256790A1, “DEBIO-0123 IN COMBINATION WITH TEMOZOLOMIDE AND RADIOTHERAPY FOR USE IN TREATING GLIOMA” (Debiopharm International S.A., priority 2023, published 2026)
